We go through eleven molecules from patent US20220362396A1, “AMINO-PYRAZINECARBOXAMIDE COMPOUNDS, CONJUGATES, AND USES THEREOF” (Silverback Therapeutics, Inc., priority 2018, published 2022).

A word on the IC50: it is the concentration that inhibits the measured activity by half. For orientation: EC50 means the concentration needed to bring the measured effect to its halfway point. Read a low EC50 as a more potent agent.

One test addresses T1, TGFBR2 (Homo sapiens, UniProt P37173).
T1 construct: purchased Reaction Biology Corp
As to the kind of experiment: TGFBR2 RBC assay (enzyme inhibition assay, Reaction Biology Corp.). It is filed as biochemical. Here is the method: Compounds of the disclosure were also assayed by Reaction Biology Corp. using the TGFBR2 RBC assay (enzyme inhibition assay). […] NT refers to not tested.

Test [1] relates to TGFβ/SMAD Signaling Pathway SBE reporter cell line. As to the kind of experiment: TGFβ reporter assay, in vitro small molecule screening (luciferase). The conditions noted are these: TGFβ stimulation, luminescence. In kind it is cell-based. In a few lines: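 SBE luciferase reporter cells (~0.5×10^6 cells/mL) preincubated with compound 5-6 h at 37 °C in 0.5% FBS MEM, then stimulated with TGFβ (12 ng/mL stock) for 18 h. Luminescence read after luciferase substrate; EC50 from curve fits.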

In test [2] the test system is TGFβ-inducible genes in PANC-1 tumors. As to the kind of experiment: Intra-tumoral injection of TGFβR2 inhibitors, PANC-1 xenograft, RT-qPCR of tumors. It is filed as in vivo, nude mice. The settings on record: PANC-1, 2 ug intra-tumoral QD5, tumors 4 h after last injection, vs DMSO vehicle. Here is the method: (§1) TGFβR2 inhibitors were tested for their ability to alter expression in vivo of a set of genes reported to be regulated by TGFβ, particularly those associated with tumor CAFs. Two million BXCP3 (ATTC) or 5 million PANC-1 (ATTC) cells in Matrigel (Corning Life Sciences) were inoculated into the flanks of nude mice (JAX Labs) and allowed to grow to approximately 100 mm3 in size before sorting into cohorts for treatment. BXPC3 tumors were treated by intra-tumoral injection (IT) of 2 ug QD5 of either compound 211, compound 171 or equal volume of DMSO vehicle while PANC-1 tumors received 2 ug injections QD5 of compound 211 or vehicle control. Four hours after the last injection tumors were removed and processed for RT-qPCR by homogenization in M tubes (Miltenyi Biotec) using Purelink RNA Kit (Ambion) to isolate RNA and Taqman® RNA to CT 1 Step Kit (Applied Biosystems) with a OneStepPlus Thermocycler. Gene specific primers were obtained from ThermoFisher Scientific. […] Data was analyzed and graphed using GraphPad Prism v8.1.0. Statistical difference for gene mRNA expression between TGFβR2 inhibitor and vehicle treated cohorts was determined using multiple T test comparison with discovery (FDR) by the two-stage linear step-up procedure of Benjamini, Krieger and Yekutieli, with Q=5%. Each row was analyzed individually, without assuming a consistent SD.
In general terms: Quantitative PCR measures a nucleic acid by following its amplification.

In test [3] the test system is TGFβ-inducible genes in BXPC3 tumors. As to the kind of experiment: Intra-tumoral injection of TGFβR2 inhibitors, BXPC3 xenograft, RT-qPCR of tumors. It is filed as in vivo, nude mice. The conditions noted are these: BXPC3, 2 ug intra-tumoral QD5, tumors 4 h after last injection, vs DMSO vehicle. Here is the method:
as §1

Test [4] concerns αSMA gene expression in LL97a cells. As to the kind of experiment: qPCR of TGFβ-induced αSMA mRNA in LL97a IPF fibroblasts. It is filed as cell-based, human. The conditions noted are these: small molecules, TGFβ 24 hours, concentration dependent. Here is the method: (§2) The ability of select small molecules to lower a TGFβ 1-induced mRNA were tested in assays with the cell line LL97a (ATCC) as follows. LL97a cells were seeded in 96 well plates at 10,000 cells/well in DMEM+10% FBS+1% NaPyr, +1% L-glut, +1% NEAA, +1% HEPES+0.5% Pen/Strep. The following day test articles and controls were added at varying concentrations in assay media of DMEM+0.5% BSA along with 0.5 ng/mL TGFβ1 (PeproTech Inc.) was added to wells. After 24 hours or 48 hours incubation with TGFβ1 at 37 C in a 5% CO2 environment RNA was prepared from cells and QPCR performed for the TGFβ-inducible genes αSMA and elastin as well as the non-inducible control gene RPLPO with a Tagman® Gene Expression Cells-to-CT 1—Step Kit (Life Technologies Inc.) and with a One Step Plus Thermocycler (Applied Biosystems) as per manufacturers' recommendations. Primer probe sets were obtained from ThermoFisher Scientific.
Compounds 2.1 and 171 were covalently attached to an anti-LRRC15 antibody using different protease cleavable PABC linkers. […] Average DAR level of the purified species was determined by analysis via hydrophobic interaction chromatography (HIC) using TSK-gel butyl NPR (Tosoh Bioscience LLC) and by LCMS (Waters Corp.) and they were tested for their ability to reduce αSMA and elastin gene induction by TGFβ in the LL97a and NHLF human fibroblast cell lines using a qPCRassay. […]

Test [5] has as its system elastin gene expression in LL97a cells. As to the kind of experiment: qPCR of TGFβ-induced elastin mRNA in LL97a IPF fibroblasts. It is filed as cell-based, human. The conditions noted are these: small molecules, TGFβ 24 hours, concentration dependent. The protocol: as §2
The next test concerns the target T2, full length human LRRC15 (human, UniProt Q8TF66 22-581).
T2 sequence (looked up): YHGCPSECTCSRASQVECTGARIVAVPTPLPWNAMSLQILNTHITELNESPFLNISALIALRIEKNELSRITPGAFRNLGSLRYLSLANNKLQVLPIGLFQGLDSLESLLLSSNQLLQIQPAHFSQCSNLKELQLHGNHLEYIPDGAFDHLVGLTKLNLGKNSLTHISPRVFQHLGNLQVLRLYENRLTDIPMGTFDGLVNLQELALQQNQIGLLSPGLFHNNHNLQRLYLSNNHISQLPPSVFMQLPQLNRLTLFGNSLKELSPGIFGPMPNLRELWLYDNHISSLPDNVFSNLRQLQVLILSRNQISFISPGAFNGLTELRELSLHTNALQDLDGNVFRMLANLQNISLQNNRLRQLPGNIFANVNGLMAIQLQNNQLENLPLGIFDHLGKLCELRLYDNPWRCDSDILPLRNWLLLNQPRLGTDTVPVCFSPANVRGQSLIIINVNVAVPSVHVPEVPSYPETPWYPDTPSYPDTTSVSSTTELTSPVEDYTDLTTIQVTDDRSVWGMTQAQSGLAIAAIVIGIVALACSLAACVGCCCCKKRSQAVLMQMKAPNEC
As to the kind of experiment: cell-based or functional assay.

Entries after “also recorded” stand apart in the source; their conditions may differ. Some results are limits rather than exact numbers.

T1 sequence (P37173 23-567): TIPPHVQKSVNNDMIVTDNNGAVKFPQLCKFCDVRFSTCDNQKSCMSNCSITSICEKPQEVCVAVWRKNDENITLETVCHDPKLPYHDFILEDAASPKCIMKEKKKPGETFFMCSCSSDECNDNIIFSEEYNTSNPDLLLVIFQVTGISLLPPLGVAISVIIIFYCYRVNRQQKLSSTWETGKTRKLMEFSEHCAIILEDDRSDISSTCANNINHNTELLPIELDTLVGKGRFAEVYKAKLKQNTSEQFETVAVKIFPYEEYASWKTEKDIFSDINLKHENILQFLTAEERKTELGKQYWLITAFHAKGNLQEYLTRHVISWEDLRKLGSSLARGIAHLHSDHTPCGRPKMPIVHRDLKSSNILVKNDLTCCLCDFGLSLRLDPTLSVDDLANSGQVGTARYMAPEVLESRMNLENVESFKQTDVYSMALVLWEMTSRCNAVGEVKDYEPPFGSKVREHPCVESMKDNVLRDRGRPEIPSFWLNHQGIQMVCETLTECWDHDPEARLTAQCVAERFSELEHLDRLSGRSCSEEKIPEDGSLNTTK

For the molecule `CC(CN)Oc1ccc(-c2cnc(N)c(C(=O)Nc3cnccc3N3CCOCC3)n2)cc1` (stereo not drawn) [Compound 211], the IC50 on TGFBR2 was < 50 nM. The EC50 in test [1] was < 50 nM. The “mRNA level of TGFβ-inducible genes in tumors” value was “reduces the mRNA level; also recorded: decreased many TGFβ-inducible gene mRNAs” in test [2] and “reduce the mRNA level; also recorded: reduced the mRNA level of most TGFβ-inducible genes” in test [3].
Consider `Nc1ncc(-c2ccc3c(c2)C(O)CC3)nc1C(=O)Nc1cnccc1N1CCOCC1` (stereo not drawn) [Compound 250], for which the IC50 against TGFBR2 is < 50 nM. The EC50 in test [1] was 100 to 1000 nM. Further, in test [4], the “inhibition of TGFβ-induction of αSMA gene expression” value is “inhibits”. Besides, in test [5], the “inhibition of TGFβ-induction of elastin gene expression” value is “inhibits”.
With `Nc1ncc(-c2ccc(OCC[C@H](NC(=O)OCc3ccccc3)C(=O)O)cc2)nc1C(=O)Nc1cnccc1N1CCOCC1` [Compound 265], on TGFBR2, the IC50 is < 50 nM. For the same molecule, the EC50 in test [1] was > 1000 nM.
Consider `NCCc1ccc(-c2cnc(N)c(C(=O)Nc3cnccc3-c3ccccn3)n2)cc1` [Compound 132], for which the IC50 on TGFBR2 was < 50 nM. In test [1], this molecule returned an EC50 of 100 to 1000 nM.
With `COC(=O)[C@@H](CCOc1ccc(-c2cnc(N)c(C(=O)Nc3cnccc3N3CCOCC3)n2)cc1)NC(=O)OCc1ccccc1` [Compound 270], the IC50 on TGFBR2 was < 50 nM. Moreover, the EC50 in test [1] is 100 to 1000 nM.
Consider `Nc1ncc(-c2ccc(CCNC(=O)OCc3ccccc3)cc2)nc1C(=O)Nc1cnccc1-c1ccc(=O)[nH]c1` [Compound 22], for which the IC50 against TGFBR2 was 100 to 1000 nM. The same molecule displayed an EC50 in test [1] of 50 to 100 nM.
For `CC(C)(C)OC(=O)NC1CCN(c2ccc(-c3cnc(N)c(C(=O)Nc4cnccc4N4CCOCC4)n3)cc2)CC1` [Compound 280], on TGFBR2, the IC50 is < 50 nM. In test [1], the EC50 lay within 100 to 1000 nM.
For `Nc1ncc(-c2cccc(CNC(=O)OCc3ccccc3)c2)nc1C(=O)Nc1cnccc1N1CCOCC1` [Compound 176], in that order: < 50 nM and 100 to 1000 nM.
For `Nc1ncc(-c2ccc(CCNC(=O)OCc3ccccc3)cc2)nc1C(=O)Nc1cnccc1N1CCSCC1` [Compound 36], in that order: 100 to 1000 nM and 50 to 100 nM.

B1: anti-LRRC15 humanized IgG1 M25 antibody with Fc null domain conjugated to LP1 (antibody, V domains shown)
VH: EVQLVQSGAEVKKPGASVKVSCKASGYKFSSYWIEWVKQAPGQGLEWIGEILPGSDTTNYNEKFKDRATFTSDTSINTAYMELSRLRSDDTAVYYCARDRGNYRAWFGYWGQGTLVTVSS
VL: DIQMTQSPSSLSASVGDRVTITCRASQDISNYLNWYQQKPGGAVKFLIYYTSRLHSGVPSRFSGSGSGTDYTLTISSLQPEDFATYFCQQGEALPWTFGGGTKVEIK
modifications: linker-payload LP1 on interchain disulfide cysteines, average DAR 2.5-4
B1: the “absolute IC50 of TGFβ1-induced SMAD2 promoter luciferase activity, HEK293 reporter cells expressing human LRRC15” value with full length human LRRC15 was < 10 nM.

B2: anti-LRRC15 humanized IgG1 M25 antibody with Fc null domain conjugated to LP10 (antibody, V domains shown)
VH: B1 VH
VL: B1 VL
modifications: linker-payload LP10 on interchain disulfide cysteines, average DAR 2.5-4
On to B2, for which, in the test with full length human LRRC15, the “absolute IC50 of TGFβ1-induced SMAD2 promoter luciferase activity, HEK293 reporter cells expressing human LRRC15” value is < 10 nM.
